From paper PMC7937321 (Genes and Environment, 2021)
Read-outs that look alike come from different tables or passages of the source.

How the values were obtained:
[1] = test system: L5178Y mouse lymphoma cells; settings: ref [27], [46]-[53], Table 3, cited from earlier work
[2] = test system: TA1538, TA100, TA98, TA97, TA1535; settings: cited from earlier work
[3] = test system: human lymphoblastoid TK6 cells, thymidine kinase gene; test: TK gene mutation assay (TK6 assay, OECD TG490); settings: for MF: graph data
Protocol: In principle, this collaborative study conducted the treatment of test substances, the dose finding, and the main test of TK6 assays, according to the OECD Guideline TG490 [17]. […] Briefly, test substances were dissolved in an appropriate solvent (DMSO or ethanol) and then serially diluted to prepare final concentrations. […] The 4 h and 24 h treatments were conducted by shaking and static exposures, respectively. After treatment with test substances, cells were centrifuged (1000 rpm, 5 min), supernatants were removed, and cells were washed with a serum-free medium or Hank’s Balanced Salt Solution. After centrifugation (1000 rpm, 5 min) to remove the supernatant, cells (2 × 10^7 cells) were dispersed in an RPMI medium containing 10% serum, and cell concentration was measured. Treated cells were cultured at 37 °C with 5% CO2 condition and used for TK6 assays. At that time, to calculate the cloning efficiency (CE) (Eq. 1), the cells were cultured in a 96-well microplate at a concentration of about 1.6 cells/well for 2 weeks.
The TK6 assay is conducted between 20 and 10% RS0 as a maximum dose if cytotoxicity is observed. If no precipitate or limiting cytotoxicity was observed, the maximum dose was the lowest concentration among 10 mM, 2 mg/mL, or 2 μL/mL of the test substance. When the main TK6 assay was difficult to conduct under the condition of RS0 values from 20 to 10%, the test was conducted between 20 and 10% relative total growth (RTG), described later, as a maximum dose.
On the third day of culture, CE3 plates for determining plating efficiency and mutant frequency (MF) plates for mutation detection were prepared. CE3 plates were seeded in 96-well microplates at a concentration of about 1.6 cells/well. The MF plates were seeded in 96-well microplates at 40,000 cells/well in the presence of 3 μg/mL of trifluorothymidine (Sigma Aldrich).
Mutant colonies in MF plates were calculated using Eq. 7 using the Poisson distribution. EW was the number of wells without colonies, and TW was the total number of wells. N was the average number of cells per well (N = 40,000 in this study). The data were statistically analyzed by Omori’s method, a modified Dunnett’s procedure for identifying clear negatives, a Simpson–Margolin procedure for detecting downturn data, and a trend test to evaluate the dose dependency [42, 43]. The acceptability criterion for the test was that the MF value of the positive control group of each laboratory was increased with statistical significance compared with that of the concurrent negative control group.

[4] = 24 h treatment, -S9 mix, 173.70 μg/mL
[5] = 24 h treatment, -S9 mix, 277.90 μg/mL
[6] = 24 h treatment, -S9 mix, 444.70 μg/mL
[7] = 24 h treatment, -S9 mix, 711.5 μg/mL
[8] = 24 h treatment, -S9 mix, 1138.4 μg/mL
[9] = 24 h treatment, -S9 mix, 1821.4 μg/mL
[10] = Long-term treatment without metabolic activation
[11] = Short treatment, +S9 mix, dose 173.7 μg/mL
[12] = Short treatment, +S9 mix, dose 277.9 μg/mL
[13] = Short treatment, +S9 mix, dose 445 μg/mL
[14] = Short treatment, +S9 mix, dose 712 μg/mL
[15] = Short treatment, +S9 mix, dose 1138 μg/mL
[16] = Short treatment, +S9 mix, dose 1821 μg/mL
[17] = Short treatment, -S9 mix, dose 173.70 μg/mL
[18] = Short treatment, -S9 mix, dose 277.90 μg/mL
[19] = Short treatment, -S9 mix, dose 444.70 μg/mL
[20] = Short treatment, -S9 mix, dose 711.5 μg/mL
[21] = Short treatment, -S9 mix, dose 1138.4 μg/mL
[22] = Short treatment, -S9 mix, dose 1821.4 μg/mL

SMILES: Nc1cc([N+](=O)[O-])ccc1C(=O)O [4-Nitroanthranilic acid]
- MLA (TK gene locus), With S9 ([1]; with S9): Pos
- MLA (TK gene locus), Without S9 ([1]; without S9): Equivocal^d
- The Highest Specific Activity and the Strain ([2]; TA100 with S9, ref Table 2): 2830 revertants/mg
- The Highest Specific Activity and the Strain ([2]; TA1535 with S9, ref [33]): 3600 revertants/mg
- Bacterial reverse mutation assay, With S9 ([2]; with S9, ref [18]-[40], Table 2): Pos
- Bacterial reverse mutation assay, Without S9 ([2]; without S9, ref [18]-[40], Table 2): Pos
- TK6 assay result (mutant frequency increase, judgment) ([3]; 4h treatment (+S9)): no increase in mutation frequency
- TK6 assay result (mutant frequency increase, judgment) ([3]; 4h treatment (+S9), listed as 4-nitroanthranilic acid): negative
- TK6 assay result (mutant frequency increase, judgment) ([3]; 4h treatment (-S9)): no increase in mutation frequency
- TK6 assay result (mutant frequency increase, judgment) ([3]; 4h treatment (-S9), listed as 4-nitroanthranilic acid): negative
- TK mutation assay, Long term ([3]; 24 h, without S9): Pos
- TK6 assay result (mutant frequency increase, judgment) ([3]; 24h treatment (-S9)): statistically significant increase in mutation frequency
- TK6 assay result (mutant frequency increase, judgment) ([3]; 24h treatment (-S9), listed as 4-nitroanthranilic acid): positive
- %SG [3, 4]: 68.7%
- Mut. freq. (×10-6) N-MF [3, 4]: 1.8 ×10-6
- Mut. freq. (×10-6) S-MF [3, 4]: 3.9 ×10-6
- Mut. freq. (×10-6) T-MF [3, 4]: 5.6 ×10-6
- %SG [3, 5]: 61.0%
- Mut. freq. (×10-6) N-MF [3, 5]: 3.1 ×10-6
- Mut. freq. (×10-6) S-MF [3, 5]: 4.8 ×10-6
- Mut. freq. (×10-6) T-MF [3, 5]: 7.9 ×10-6
- %SG [3, 6]: 63.1%
- Mut. freq. (×10-6) N-MF [3, 6]: 2.6 ×10-6
- Mut. freq. (×10-6) S-MF [3, 6]: 4.4 ×10-6
- Mut. freq. (×10-6) T-MF [3, 6]: 7.0 ×10-6
- %SG [3, 7]: 72.4%
- Mut. freq. (×10-6) N-MF [3, 7]: 3.0 ×10-6
- Mut. freq. (×10-6) S-MF [3, 7]: 7.8 ×10-6
- Mut. freq. (×10-6) T-MF [3, 7]: 10.7 ×10-6
- %SG [3, 8]: 57.1%
- Mut. freq. (×10-6) N-MF [3, 8]: 4.1 ×10-6
- Mut. freq. (×10-6) S-MF [3, 8]: 5.5 ×10-6
- Mut. freq. (×10-6) T-MF [3, 8]: 9.7 ×10-6
- %SG [3, 9]: 68.5%
- Mut. freq. (×10-6) N-MF [3, 9]: 4.4 ×10-6
- Mut. freq. (×10-6) S-MF [3, 9]: 9.5 ×10-6
- Mut. freq. (×10-6) T-MF [3, 9]: 13.9 ×10-6
- Dunnett type test, test statistic [3, 10]: 2.990
- Trend test, test statistic [3, 10]: 4.178
- %SG [3, 11]: 38.9%
- Mut. freq. (×10-6) N-MF [3, 11]: 6.7 ×10-6
- Mut. freq. (×10-6) S-MF [3, 11]: 4.3 ×10-6
- Mut. freq. (×10-6) T-MF [3, 11]: 10.9 ×10-6
- %SG [3, 12]: 40.2%
- Mut. freq. (×10-6) N-MF [3, 12]: 6.1 ×10-6
- Mut. freq. (×10-6) S-MF [3, 12]: 4.1 ×10-6
- Mut. freq. (×10-6) T-MF [3, 12]: 10.3 ×10-6
- %SG [3, 13]: 44.7%
- Mut. freq. (×10-6) N-MF [3, 13]: 4.6 ×10-6
- Mut. freq. (×10-6) S-MF [3, 13]: 3.7 ×10-6
- Mut. freq. (×10-6) T-MF [3, 13]: 8.4 ×10-6
- %SG [3, 14]: 49.2%
- Mut. freq. (×10-6) N-MF [3, 14]: 5.5 ×10-6
- Mut. freq. (×10-6) S-MF [3, 14]: 5.3 ×10-6
- Mut. freq. (×10-6) T-MF [3, 14]: 10.7 ×10-6
- %SG [3, 15]: 37.9%
- Mut. freq. (×10-6) N-MF [3, 15]: 6.4 ×10-6
- Mut. freq. (×10-6) S-MF [3, 15]: 3.9 ×10-6
- Mut. freq. (×10-6) T-MF [3, 15]: 10.3 ×10-6
- %SG [3, 16]: 43.4%
- Mut. freq. (×10-6) N-MF [3, 16]: 6.4 ×10-6
- Mut. freq. (×10-6) S-MF [3, 16]: 4.9 ×10-6
- Mut. freq. (×10-6) T-MF [3, 16]: 11.3 ×10-6
- %SG [3, 17]: 60.5%
- Mut. freq. (×10-6) N-MF [3, 17]: 3.6 ×10-6
- Mut. freq. (×10-6) S-MF [3, 17]: 5.5 ×10-6
- Mut. freq. (×10-6) T-MF [3, 17]: 9.0 ×10-6
- %SG [3, 18]: 56.6%
- Mut. freq. (×10-6) N-MF [3, 18]: 3.8 ×10-6
- Mut. freq. (×10-6) S-MF [3, 18]: 4.9 ×10-6
- Mut. freq. (×10-6) T-MF [3, 18]: 8.7 ×10-6
- %SG [3, 19]: 46.7%
- Mut. freq. (×10-6) N-MF [3, 19]: 4.2 ×10-6
- Mut. freq. (×10-6) S-MF [3, 19]: 3.7 ×10-6
- Mut. freq. (×10-6) T-MF [3, 19]: 7.9 ×10-6
- %SG [3, 20]: 48.9%
- Mut. freq. (×10-6) N-MF [3, 20]: 4.3 ×10-6
- Mut. freq. (×10-6) S-MF [3, 20]: 4.2 ×10-6
- Mut. freq. (×10-6) T-MF [3, 20]: 8.5 ×10-6
- %SG [3, 21]: 52.7%
- Mut. freq. (×10-6) N-MF [3, 21]: 3.7 ×10-6
- Mut. freq. (×10-6) S-MF [3, 21]: 4.1 ×10-6
- Mut. freq. (×10-6) T-MF [3, 21]: 7.8 ×10-6
- %SG [3, 22]: 65.9%
- Mut. freq. (×10-6) N-MF [3, 22]: 3.0 ×10-6
- Mut. freq. (×10-6) S-MF [3, 22]: 5.9 ×10-6
- Mut. freq. (×10-6) T-MF [3, 22]: 9.0 ×10-6
- Dunnett type test, test statistic ([3]; Short-term treatment with metabolic activation): 0.732
- Dunnett type test, test statistic ([3]; Short-term treatment without metabolic activation): 0.791
- MF ([3]; 24 h, -S9 mix, 173.70 μg/mL): 5.6
- MF ([3]; 24 h, -S9 mix, 277.90 μg/mL): 7.9
- MF ([3]; 24 h, -S9 mix, 444.70 μg/mL): 7.0
- MF ([3]; 24 h, -S9 mix, 711.5 μg/mL): 10.7
- MF ([3]; 24 h, -S9 mix, 1138.4 μg/mL): 9.7
- MF ([3]; 24 h, -S9 mix, 1821.4 μg/mL): 13.9
- MF [3, 11]: 10.9
- MF [3, 12]: 10.3
- MF ([3]; Short treatment, +S9 mix, dose 444.7 μg/mL): 8.4
- MF ([3]; Short treatment, +S9 mix, dose 711.5 μg/mL): 10.7
- MF ([3]; Short treatment, +S9 mix, dose 1138.4 μg/mL): 10.3
- MF ([3]; Short treatment, +S9 mix, dose 1821.4 μg/mL): 11.3
- MF [3, 17]: 9.0
- MF [3, 18]: 8.7
- MF [3, 19]: 7.9
- MF [3, 20]: 8.5
- MF [3, 21]: 7.8
- MF [3, 22]: 9.0
- TK mutation assay, With S9 ([3]; short-term 4 h, with rat liver S9): Neg
- TK mutation assay, Without S9 ([3]; short-term 4 h, without S9): Neg
